In patent publication US9624247B2, “Pyrazolo-pyrrolidin-4-one derivatives as bet inhibitors and their use in the treatment of disease” (NOVARTIS AG, priority 2013, dated 2017):

How the values were obtained:
BRD4 (His-Brd4(44-477)) = BRD4 (His-Brd4(44-477)) (Homo sapiens (Human), UniProt O60885); assay: TR-FRET in-vitro binding assay for BRD4; settings: acetyl-histone H4 peptide
BRD3 (His-Brd3(20-477)) = BRD3 (His-Brd3(20-477)) (Homo sapiens (Human), UniProt Q15059); assay: TR-FRET in-vitro binding assay for BRD3; settings: acetyl-histone H4 peptide
Chain of BRD3 (His-Brd3(20-477)) (Q15059 20-477): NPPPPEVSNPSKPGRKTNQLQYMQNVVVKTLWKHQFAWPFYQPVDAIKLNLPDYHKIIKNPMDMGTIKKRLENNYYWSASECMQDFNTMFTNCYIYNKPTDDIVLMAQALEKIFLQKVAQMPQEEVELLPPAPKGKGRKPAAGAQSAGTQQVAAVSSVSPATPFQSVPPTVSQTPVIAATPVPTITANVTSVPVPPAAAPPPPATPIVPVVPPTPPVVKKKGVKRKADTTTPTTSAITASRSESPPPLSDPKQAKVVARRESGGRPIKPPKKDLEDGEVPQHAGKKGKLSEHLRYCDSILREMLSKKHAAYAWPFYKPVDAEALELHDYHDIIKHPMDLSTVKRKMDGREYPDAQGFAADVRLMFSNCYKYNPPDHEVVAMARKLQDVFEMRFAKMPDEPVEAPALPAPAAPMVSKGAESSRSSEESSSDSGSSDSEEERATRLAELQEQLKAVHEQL

[1] = target: CREBBP bromodomain (His-CREBBP(1081-1197)) (Homo sapiens (Human), UniProt Q92793); assay: AlphaScreen in-vitro binding assay for CREBBP; settings: AlphaScreen, acetyl-histone H4 peptide; read-out: CREBBP IC50
Chain of CREBBP bromodomain (His-CREBBP(1081-1197)) (Q92793 1081-1197): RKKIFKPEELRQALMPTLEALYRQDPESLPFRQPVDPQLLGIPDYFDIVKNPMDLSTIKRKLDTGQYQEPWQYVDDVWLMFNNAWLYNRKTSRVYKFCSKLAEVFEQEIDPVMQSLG

With Cc1cc(N2C(=O)c3c(C4CC4)nn(C)c3C2c2ccc(Cl)cc2)cn2c(C(F)F)nnc12 (racemic) [Example 3, 6-(4-chlorophenyl)-3-cyclopropyl-5-(3-(difluoromethyl)-8-methyl-[1,2,4]triazolo[4,3-a]pyridin-6-yl)-1-methyl-5,6-dihydropyrrolo[3,4-c]pyrazol-4(1H)-one] the IC50 (BRD4 (His-Brd4(44-477))) was under 11 nM, the IC50 (BRD3 (His-Brd3(20-477))) was under 11 nM and the IC50 [1] was over 37000 nM.

COCCn1nc(C2CC2)c2c1C(c1ccc(Cl)cc1)N(c1cc(C)c3nnc(C)n3c1)C2=O (racemic) [Example 4, 6-(4-chlorophenyl)-3-cyclopropyl-5-(3,8-dimethyl-[1,2,4]triazolo[4,3-a]pyridin-6-yl)-1-(2-methoxyethyl)-5,6-dihydropyrrolo[3,4-c]pyrazol-4(1H)-one] gave an IC50 (BRD4 (His-Brd4(44-477))) of under 11 nM, an IC50 (BRD3 (His-Brd3(20-477))) of under 11 nM and an IC50 [1] of 7300 nM.

COc1cc(N2C(=O)c3c(C4CC4)nn(C)c3C2c2ccc(Cl)cc2)cn2c(C)nnc12 (racemic) [Example 5, 6-(4-chlorophenyl)-3-cyclopropyl-5-(8-methoxy-3-methyl-[1,2,4]triazolo[4,3-a]pyridin-6-yl)-1-methyl-5,6-dihydropyrrolo[3,4-c]pyrazol-4(1H)-one] was tested, and the IC50 (BRD4 (His-Brd4(44-477))) was 28 nM, the IC50 (BRD3 (His-Brd3(20-477))) was 44 nM and the IC50 [1] was over 37000 nM.

With Cc1cc(N2C(=O)c3c(C4CC4)nn(C)c3C2c2ccc(Cl)cc2)cn2c(CF)nnc12 (racemic) [Example 16, 6-(4-chlorophenyl)-3-cyclopropyl-5-(3-(fluoromethyl)-8-methyl-[1,2,4]triazolo[4,3-a]-pyridin-6-yl)-1-methyl-5,6-dihydropyrrolo[3,4-c]pyrazol-4(1H)-one] the IC50 (BRD4 (His-Brd4(44-477))) was 15 nM, the IC50 (BRD3 (His-Brd3(20-477))) was 13 nM and the IC50 [1] was over 37000 nM.

For Cc1cc(N2C(=O)c3c(C4CC4)nn(C)c3C2c2ccc(Cl)cc2)cn2c(C)nnc12 (centres unmarked) [Example 1, 6-(4-chlorophenyl)-3-cyclopropyl-5-(3,8-dimethyl-[1,2,4]triazolo[4,3-a]pyridin-6-yl)-1-methyl-5,6-dihydropyrrolo[3,4-c]pyrazol-4(1H)-one], the IC50 (BRD4 (His-Brd4(44-477))) was 24 nM, the IC50 (BRD3 (His-Brd3(20-477))) was 31 nM and the IC50 [1] was 11400 nM.

Cc1cc(N2C(=O)c3c(C4CC4)nn(C)c3[C@H]2c2ccc(Cl)cc2)cn2c(C)nnc12 [Example 2, (R)-6-(4-chlorophenyl)-3-cyclopropyl-5-(3,8-dimethyl-[1,2,4]triazolo[4,3-a]pyridin-6-yl)-1-methyl-5,6-dihydropyrrolo[3,4-c]pyrazol-4(1H)-one] showed an IC50 (BRD4 (His-Brd4(44-477))) of under 11 nM, an IC50 (BRD3 (His-Brd3(20-477))) of 12 nM and an IC50 [1] of 6000 nM.

Work on COc1cc(N2C(=O)c3c(C4CC4)nn(C)c3C2c2ccc(Cl)cc2)cc2c1nnn2C (centres unmarked) [Example 6] yielded an IC50 (BRD4 (His-Brd4(44-477))) of 22 nM, an IC50 (BRD3 (His-Brd3(20-477))) of 25 nM and an IC50 [1] of 21600 nM.

Cc1cc(N2C(=O)c3c(C4CC4)nn(C)c3[C@H]2c2ccc(Cl)cc2)cn2c(C(F)F)nnc12 [Example 7, (R)-6-(4-chlorophenyl)-3-cyclopropyl-5-(3-(difluoromethyl)-8-methyl-[1,2,4]triazolo-[4,3-a]pyridin-6-yl)-1-methyl-5,6-dihydropyrrolo[3,4-c]pyrazol-4(1H)-one] showed an IC50 (BRD4 (His-Brd4(44-477))) of under 11 nM, an IC50 (BRD3 (His-Brd3(20-477))) of 12 nM and an IC50 [1] of over 37000 nM.

COCCn1nc(C2CC2)c2c1C(c1ccc(Cl)cc1)N(c1cc(C)c3nnc(CF)n3c1)C2=O (centres unmarked) [Example 18, 6-(4-chlorophenyl)-3-cyclopropyl-5-(3-(fluoromethyl)-8-methyl-[1,2,4]triazolo[4,3-a]-pyridin-6-yl)-1-(2-methoxyethyl)-5,6-dihydropyrrolo[3,4-c]pyrazol-4(1H)-one] gave an IC50 (BRD4 (His-Brd4(44-477))) of 25 nM, an IC50 (BRD3 (His-Brd3(20-477))) of 24 nM and an IC50 [1] of over 37000 nM.

In the case of Cc1nnc2c(NC(=O)OC(C)(C)C)cc(N3C(=O)c4c(C5CC5)nn(C)c4C3c3ccc(Cl)cc3)cn12 (centres unmarked) [Example 27, tert-butyl (6-(6-(4-chlorophenyl)-3-cyclopropyl-1-methyl-4-oxopyrrolo[3,4-c]pyrazol-5(1H,4H,6H)-yl)-3-methyl-[1,2,4]triazolo[4,3-a]pyridin-8-yl)carbamate], the IC50 (BRD4 (His-Brd4(44-477))) is reported as 36 nM, the IC50 (BRD3 (His-Brd3(20-477))) is reported as 65 nM and the IC50 [1] is reported as 8100 nM.

Work on CCOC(=O)Nc1cc(N2C(=O)c3c(C4CC4)nn(C)c3C2c2ccc(Cl)cc2)cn2c(C)nnc12 (centres unmarked) [Example 29, ethyl (6-(6-(4-chlorophenyl)-3-cyclopropyl-1-methyl-4-oxopyrrolo[3,4-c]pyrazol-5-(1H,4H,6H)-yl)-3-methyl-[1,2,4]triazolo[4,3-a]pyridin-8-yl)carbamate] yielded an IC50 (BRD4 (His-Brd4(44-477))) of 23 nM and an IC50 (BRD3 (His-Brd3(20-477))) of 22 nM.
